Experimental data: ChEMBL document CHEMBL5625206, “Design, synthesis, and evaluation of novel pleuromutilin aryl acrylate derivatives as promising broad-spectrum antibiotics especially for combatting multi-drug resistant gram-negative bacteria” (Eur J Med Chem, 2023)
≈ marks a conversion by molar mass, not a printed value. Calls of active or inactive are those of the source. No cut-off for these calls is given here.

How the values were obtained:
Enterococcus = test: Antibacterial activity against vancomycin-resistant Enterococcus 80 clinical isolate assessed as bacterial growth inhibition incubated for 24 hrs by CLSI based broth microdilution method; format: functional
Pseudomonas aeruginosa = test: Antibacterial activity against multidrug-resistant Pseudomonas aeruginosa 126 clinical isolate assessed as bacterial growth inhibition incubated for 24 hrs by CLSI based broth microdilution method; format: functional
Staphylococcus aureus [1] = test: Bactericidal activity against methicillin-resistant Staphylococcus aureus ATCC 33591 at MIC incubated for 24 hrs by time kill assay relative to control; format: functional
[2] = test system: Mesomycoplasma hyopneumoniae; test: Anti-mycoplasma activity against Mycoplasma hyopneumoniae J-NCYC10110 assessed as bacterial growth inhibition incubated for 7 days; format: functional; conditions: J-NCYC10110, 168 h, time 7 day
[3] = Cytotoxicity against human A549 cells incubated for 24 hrs by CCK8 assay; format: toxicity, cell-based
Staphylococcus aureus [4] = test: Induction of cell damage in methicillin-resistant Staphylococcus aureus ATCC 33591 assessed as decrease in intracellular ATP concentration at MIC incubated for 30 mins by fluorescence based analysis relative to control; format: functional; parameters: scale not given: the % may be the effect or the level left; conditions: 0.5 h
Staphylococcus aureus [5] = test: Induction of cell damage in methicillin-resistant Staphylococcus aureus ATCC 33591 assessed as decrease in intracellular ATP concentration at 2 times MIC incubated for 30 mins by fluorescence based analysis relative to control; format: functional; parameters: scale not given: the % may be the effect or the level left; conditions: 0.5 h
Staphylococcus aureus [6] = test: Induction of cell damage in methicillin-resistant Staphylococcus aureus ATCC 33591 assessed as intracellular pH at MIC incubated for 30 mins by fluorescence based analysis (reference value: 6.34 +/- 0.10); format: functional; conditions: 0.5 h
Staphylococcus aureus [7] = test: Induction of cell damage in methicillin-resistant Staphylococcus aureus ATCC 33591 assessed as intracellular pH at 2 times MIC incubated for 30 mins by fluorescence based analysis (reference value: 6.34 +/- 0.10); format: functional; conditions: 0.5 h
Staphylococcus aureus [8] = test: Depolarization of cell membrane in methicillin-resistant Staphylococcus aureus ATCC 33591 by DiBAC4(3) probe based analysis; format: functional, organism-based
Escherichia coli = test: Disruption of cell membrane integrity in Escherichia coli ATCC 25922 at 4 times MIC incubated for 4 hrs by FESEM analysis; format: functional, organism-based
[9] = Toxicity in neutropenic Kunming mouse model infected with methicillin-resistant Staphylococcus aureus ATCC 33591 assessed as survival rate at 10 mg/kg, ip measured after 7 days relative to control; format: organism-based; conditions: in vivo, 168 h, time 7 day
Staphylococcus aureus [10] = test: Antibacterial activity against methicillin-resistant Staphylococcus aureus ATCC 33591 infected in neutropenic Kunming mouse model assessed as bacterial load reduction in kidney at 10 to 20 mg/kg, ip measured after 2 days; format: functional, organism-based; conditions: dose 10-20 mg/kg, time 2.0 day
Staphylococcus aureus [11] = test: Antibacterial activity against methicillin-resistant Staphylococcus aureus ATCC 33591 infected in neutropenic Kunming mouse model assessed as reduction in infection-induced inflammatory cell inflammation in lung at 10 mg/kg, ip measured after 7 days; format: functional, organism-based; conditions: time 7.0 day
Staphylococcus aureus [12] = test: Antibacterial activity against methicillin-resistant Staphylococcus aureus ATCC 33591 infected in neutropenic Kunming mouse model assessed as reduction in infection-induced lung damage at 20 mg/kg, ip measured after 7 days; format: functional, organism-based; conditions: time 7.0 day
Staphylococcus aureus [13] = test: Antibacterial activity against methicillin-resistant Staphylococcus aureus ATCC 33591 infected in neutropenic Kunming mouse model assessed as restoration of infection- induced change in cell morphology in kidney at 20 mg/kg, ip measured after 7 days; format: functional, organism-based; conditions: time 7.0 day
[14] = Cmax in fasted Sprague-Dawley rat at 1 mg/kg, iv by LC-MS/MS analysis; format: ADME, organism-based; conditions: in vivo
[15] = Volume of distribution at steady state in fasted Sprague-Dawley rat at 1 mg/kg, iv by LC-MS/MS analysis; format: ADME, organism-based; conditions: in vivo, read-out: Vdss
[16] = Toxicity in Sprague-Dawley rat assessed as abnormal clinical symptoms at 10 to 100 mg/kg, IG measured for 14 days; format: organism-based; conditions: in vivo, po, 336 h, dose 10-100 mg/kg, time 14 day
[17] = Toxicity in fasted Sprague-Dawley rat assessed as mortality rate at 224 mg/kg, IG measured for 14 days; format: organism-based; conditions: in vivo, po, time 14 day
[18] = Toxicity in fasted Sprague-Dawley rat assessed as mortality rate at 331 mg/kg, IG measured for 14 days; format: organism-based; conditions: in vivo, po, time 14 day
[19] = Toxicity in fasted male Sprague-Dawley rat assessed as body weight at 100 mg/kg, IG measured on same day (reference value: 212.7 +/- 13.2 g); format: organism-based; conditions: in vivo, po
[20] = Toxicity in fasted male Sprague-Dawley rat assessed as animal growth rate at 331 mg/kg, IG measured for 14 days (reference value: 46.53 +/- 3.19 g); format: organism-based; conditions: in vivo, po, 336 h, time 14 day
[21] = Toxicity in fasted female Sprague-Dawley rat assessed as animal growth rate at 331 mg/kg, IG measured for 14 days (reference value: 29.85 +/- 4.97 g); format: organism-based; conditions: in vivo, po, 336 h, time 14 day
[22] = Toxicity in fasted male Sprague-Dawley rat assessed as animal growth rate at 500 mg/kg, IG measured for 14 days (reference value: 46.53 +/- 3.19 g); format: organism-based; conditions: in vivo, po, 336 h, time 14 day
[23] = Toxicity in fasted male Sprague-Dawley rat assessed as relative liver weight ratio at 100 mg/kg, IG measured for 14 days (reference value: 3.616 +/- 0.286); format: organism-based; conditions: in vivo, po, 336 h, time 14 day
[24] = Toxicity in fasted female Sprague-Dawley rat assessed as relative liver weight ratio at 100 mg/kg, IG measured for 14 days (reference value: 3.199 +/- 0.062); format: organism-based; conditions: in vivo, po, 336 h, time 14 day
[25] = Toxicity in fasted male Sprague-Dawley rat assessed as relative liver weight ratio at 148 mg/kg, IG measured for 14 days (reference value: 3.616 +/- 0.286); format: organism-based; conditions: in vivo, po, 336 h, time 14 day
[26] = Toxicity in fasted male Sprague-Dawley rat assessed as relative kidney weight ratio at 224 mg/kg, IG measured for 14 days (reference value: 0.820 +/- 0.072); format: organism-based; conditions: in vivo, po, 336 h, time 14 day
[27] = Toxicity in fasted male Sprague-Dawley rat assessed as relative heart weight ratio at 100 mg/kg, IG measured for 14 days (reference value: 0.396 +/- 0.043); format: organism-based; conditions: in vivo, po, 336 h, time 14 day
[28] = Toxicity in fasted female Sprague-Dawley rat assessed as relative heart weight ratio at 224 mg/kg, IG measured for 14 days (reference value: 0.429 +/- 0.016); format: organism-based; conditions: in vivo, po, 336 h, time 14 day
[29] = Toxicity in fasted female Sprague-Dawley rat assessed as relative spleen weight ratio at 100 mg/kg, IG measured for 14 days (reference value: 0.223 +/- 0.019); format: organism-based; conditions: in vivo, po, 336 h, time 14 day
[30] = Toxicity in fasted male Sprague-Dawley rat assessed as relative testis weight ratio at 100 mg/kg, IG measured for 14 days (reference value: 0.993 +/- 0.052); format: organism-based; conditions: in vivo, po, 336 h, time 14 day
[31] = Toxicity in fasted male Sprague-Dawley rat assessed as relative testis weight ratio at 331 mg/kg, IG measured for 14 days (reference value: 0.993 +/- 0.052); format: organism-based; conditions: in vivo, po, 336 h, time 14 day
[32] = Toxicity in fasted female Sprague-Dawley rat assessed as relative ovary weight ratio at 331 mg/kg, IG measured for 14 days (reference value: 0.061 +/- 0.010); format: organism-based; conditions: in vivo, po, 336 h, time 14 day
Staphylococcus aureus [33] = test: Induction of extracellular electrical conductivity in methicillin-resistant Staphylococcus aureus ATCC 33591 at 2 times MIC incubated for 8 hrs relative to control

Work on `C=C[C@]1(C)C[C@@H](OC(=O)COC(=O)/C=C/c2ccc(N(C)C)cc2)[C@]2(C)[C@H](C)CC[C@]3(CCC(=O)[C@H]32)[C@@H](C)[C@@H]1O` yielded an MIC (Enterococcus) of 4 µg/mL (≈ 7.25 µM), an MIC (Pseudomonas aeruginosa) of 32 µg/mL (≈ 58 µM) and an Activity (Staphylococcus aureus [1]) of 48.55%. It also gave an MIC [2] of 0.008 µg/mL (≈ 0.0145 µM), a CC50 at 24 h [3] greater than 200 µM and an Activity (Staphylococcus aureus [4]) of 57.98%. The Activity (Staphylococcus aureus [5]) was 86.52%, the pH (Staphylococcus aureus [6]) was 4.27 and the pH (Staphylococcus aureus [7]) was 2.75. The Activity (Staphylococcus aureus [8]) was “Dose-Dependent Effect”, the Activity (Escherichia coli) was “Active” and the Survival [9] was 70%. The Activity (Staphylococcus aureus [10]) was “Active”, the Activity (Staphylococcus aureus [11]) was “inactive” and the Activity (Staphylococcus aureus [12]) was “Active”. The Activity (Staphylococcus aureus [13]) was “Active”, the Cmax [14] was 9570 ng/mL and the Vd [15] was 2 L/kg. The Activity [16] was “Non-Toxic”, the mortality at 336 h [17] was 0% and the mortality at 336 h [18] was 0%. The Activity [19] was 215.3 g, the Activity [20] was 40.48% and the Activity [21] was 27.6%. For the same compound, the Activity [22] was 43.65%, the Ratio [23] was 3.623 and the Ratio [24] was 3.195. For the same compound, the Ratio [25] was 3.59, the Ratio [26] was 0.808 and the Ratio [27] was 0.396. For the same compound, the Ratio [28] was 0.453, the Ratio [29] was 0.226 and the Ratio [30] was 1.048. It also gave a Ratio [31] of 1, a Ratio [32] of 0.067 and an Activity (Staphylococcus aureus [33]) of 25.63%.
